Test results published in patent publication US4550186A, “Binuclear copper (II) carboxylates formed from amine-carboxyboranes” (Duke University, priority 1983, dated 1985).

How the values were obtained:
[1] = target: T1, HMG CoA Reductase (Mus musculus, UniProt Q01237); experiment: In vitro liver enzyme study: HMG CoA reductase; format: biochemical; conditions: in vitro CF1 liver
T1 construct: 10% homogenates of CF1 male mouse liver; from tissue; host or cells: CF1 male mouse liver, post-mitochondrial supernatant
T1 sequence (Q01237 1-887): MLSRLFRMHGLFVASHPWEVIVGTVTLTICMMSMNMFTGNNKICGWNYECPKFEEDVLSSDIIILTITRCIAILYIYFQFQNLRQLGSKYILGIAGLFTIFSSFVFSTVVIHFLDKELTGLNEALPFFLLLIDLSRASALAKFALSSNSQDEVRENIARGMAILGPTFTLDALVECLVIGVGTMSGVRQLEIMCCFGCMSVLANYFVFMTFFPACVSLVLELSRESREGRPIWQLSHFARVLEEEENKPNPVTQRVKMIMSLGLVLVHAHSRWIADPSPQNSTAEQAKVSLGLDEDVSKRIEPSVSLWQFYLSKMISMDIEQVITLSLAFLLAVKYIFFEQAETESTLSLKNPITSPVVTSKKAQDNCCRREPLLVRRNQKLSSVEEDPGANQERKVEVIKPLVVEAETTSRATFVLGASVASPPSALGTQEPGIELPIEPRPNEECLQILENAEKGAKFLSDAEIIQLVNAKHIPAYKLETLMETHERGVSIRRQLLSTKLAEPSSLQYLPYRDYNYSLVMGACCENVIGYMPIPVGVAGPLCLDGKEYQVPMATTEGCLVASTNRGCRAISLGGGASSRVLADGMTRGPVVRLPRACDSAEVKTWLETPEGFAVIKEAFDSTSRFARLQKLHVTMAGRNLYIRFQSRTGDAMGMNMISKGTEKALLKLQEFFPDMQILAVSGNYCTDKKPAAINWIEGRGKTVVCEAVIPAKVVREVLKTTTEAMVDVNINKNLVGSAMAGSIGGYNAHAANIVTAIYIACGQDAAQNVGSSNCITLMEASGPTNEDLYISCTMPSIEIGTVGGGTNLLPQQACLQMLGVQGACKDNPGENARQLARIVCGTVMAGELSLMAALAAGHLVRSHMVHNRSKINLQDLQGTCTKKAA
Method: In vitro enzymatic studies were determined using 10% homogenates of CF1 male mouse liver with 50-200 μM of test drugs. In vivo enzymatic studies were determined using 10% homogenates of liver from CF1 male mice obtained after administering the agents for 16 days at a dose ranging from 2.5-20 mg/kg/day intraperitoneally. The liver homogenates for both in vitro and in vivo studies were prepared in 0.25M sucrose and 0.001M (ethylenedinitrilo)tetraacetic acid. Acetyl coenzyme A synthetase and adenosine triphosphate dependent citrate lyase activities were determined spectrophotometrically at 540 nm as the hydroxylamate of acetyl coenzyme A formed after 30 min at 37° C. Mitochondrial citrate exchange was determined by the procedure of Robinson et al [Eur. J. Biochem., 216, 63 (1970)] using ^14 C-sodium bicarbonate (41 mCi/mmol) incorporated into mitochondrial ^14 C-citrate after isolating rat mitochondria (9000 g×10 min) from the homogenates. The exchanges of the ^14 C-citrate were determined after incubating the mitochondrial fraction which was loaded with labeled citrate and test drugs for 10 min. Then the radioactivity was measured in the mitochondrial and supernantant fractions in scintillation fluid and expressed as a percentage. Cholesterol side chain oxidation was determined by the method of Kritchevsky and Tepper [Artherosclerosis, 18, 93 (1973)] using (26-^14 C) cholesterol (50 mCi/mmol) and mitochondria isolated from rat liver homogenates. […] Fatty acid synthetase activity was determined by the method of Brady et al [J. Biol. Chem., 235, 3093 (1960)] using [2-^14 C] malonyl-coenzyme A (37.5 mCi/mmol) which was incorporated into newly synthesized fatty acids that were extracted with ether and counted. Acyl transferase activity was determined with glycerol-3phosphate [L-2-^3 H(N)] […] HCl and counted. Phosphatidate phosphohydrolase activity was measured as the inorganic phosphate released after 30 min from phosphatidic acid by the method of Mavis et al [J. Lipid Res., 19, 467 (1978)]. […]

[2] = system: Holtzman male rats; experiment: Antihyperlipidemic screen in normal rats; format: in vivo, rat
Method: Compounds to be tested were suspended in 1% carboxymethylcellulose-water and administered to CF1 male mice (~25 g) intraperitoneally for 16 days or Holtzman male rats (~350 g) orally by an intubation needle for 16 days. On days 9 or 16, blood was obtained by tail vein bleeding and the serum separated by centrifugation for 3 min. The serum cholesterol levels were determined by a modification of the Liebermann-Burchard reaction as described in Ness et al, Clin. Chim. Acta, 10, 229 (1964). Serum was also collected on day 16 and the triglyceride content was determined by a commercial kit, The Fisher Hycel Triglyceride Test Kit.
Data are expressed in the Table 2-7 as percent of control ± the standard deviation. The probable significant level (P) between each test group and the control group was determined by the Student's "t" test.

[3] = rats orally, 10.0 mg/kg, Day 16

## {Cu[(CH3)3 N.BH2 CO2 ]2.(CH3)3 N.BH2 COOH} [Compound I]
[1]; 50 μM
  HMG CoA Reductase: 102 ± 8 Percent Control
[1]; 100 μM
  HMG CoA Reductase: 101 ± 9 Percent Control
[1]; 200 μM
  HMG CoA Reductase: 105 ± 8 Percent Control
[2]; rats orally, 10.0 mg/kg, Day 9
  Serum Cholesterol: 63 ± 5 % Control
[2]; [3]
  Serum Cholesterol: 65 ± 5 % Control
  Serum Triglyceride: 36 ± 4 % Control
[2]; rats, 10 mg/kg/day
  Serum triglyceride levels reduced: 64%
  reduction in serum cholesterol levels: 37%
